System: HIV-1 LTR-III G-quadruplex (FAM/TAMRA-labeled LTR-III)
Assay: FRET melting assay, LTR-III G4
Type: binding
Settings: Table S1 primary screening, ligand:ODN 50:1, singlicate
Outline: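 Melting is followed by FAM fluorescence (ex 495/em 520 nm) while heating at 1 °C/min from 30 to 95 °C. Labelled ODN at 0.5 μM, pre-annealed in 10 mM Li cacodylate, 100 mM KCl, pH 7.4, mixed with ligand at 50:1 (25 μM), or 20:1 and 2:1 for titration. ΔTm is relative to the 0.25% DMSO buffer control.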

Row | SMILES | LTR-III ΔTm [°C]
1 | COc1ccc(C=C2N=C(Nc3ccc(C#N)cc3)N(C)C2=O)cc1 [SA 179] | 0.7
2 | CC(C)OC(=O)c1noc(=O)c(O)c1-c1ccccc1 [SA 300A] | 0.1
3 | CC(C)OC(=O)c1noc(=O)c(O)c1-c1cccc2ccccc12 [SA 300B] | -0.9
4 | CC(C)OC(=O)c1noc(=O)c(O)c1-c1ccc(C(C)C)cc1 [SA 300D] | -1.2
5 | CC(C)OC(=O)c1noc(=O)c(O)c1-c1ccccc1F [SA 305A] | -0.7
6 | CC(C)OC(=O)c1noc(=O)c(O)c1-c1cccc(C(F)(F)F)c1 [SA 305B] | -0.5
7 | CC(C)OC(=O)c1noc(=O)c(O)c1-c1ccc(N(C)C)cc1 [SA 305C] | -0.6
8 | CC(C)OC(=O)c1noc(C(=O)N2CCCC2)c1-c1ccccc1 [SA 307A] | -0.3
9 | COc1ccc(-c2c(C(=O)OC(C)C)noc2C(=O)N2CCCC2)cc1 [SA 309] | -0.5
10 | CNC(=O)c1onc(C(=O)OC(C)C)c1-c1ccccc1 [SA 325A] | -0.5
11 | CC(C)OC(=O)c1noc(C(=O)NC2CCCCC2)c1-c1ccccc1 [SA 325E] | -0.6
12 | CNC(=O)c1onc(C(=O)OC(C)C)c1-c1cccs1 [SA 330A] | -0.5
13 | CC(C)OC(=O)c1noc(C(=O)NCc2ccccc2)c1-c1cccs1 [SA 330E] | -0.7
14 | CNC(=O)c1onc(C(=O)OC(C)C)c1-c1ccccc1F [SA 331A] | -0.7
15 | CC(C)OC(=O)c1noc(C(=O)NC2CCCCC2)c1-c1ccccc1F [SA 331D] | -0.7
16 | CC(C)OC(=O)c1noc(C(=O)NCc2ccccc2)c1-c1ccccc1F [SA 331E] | -0.9
17 | CNC(=O)c1onc(C(=O)OC(C)C)c1-c1ccc(N(C)C)cc1 [SA 332.1] | -0.4
18 | CC(C)OC(=O)c1noc(C(=O)N2CCCC2)c1-c1ccc(N(C)C)cc1 [SA 332.2] | -0.4
19 | CC(C)OC(=O)c1noc(C(=O)NCc2ccccc2)c1-c1ccc(N(C)C)cc1 [SA 332E1] | -0.6
20 | C[C@H](CS)C(=O)N1CCC[C@H]1C(=O)O [SA 333] | -0.4
21 | COc1ccc(-c2c(C(=O)OC(C)C)noc2C(=O)N2CCOCC2)cc1 [SA 341A] | -0.7
22 | COc1ccc(-c2c(C(=O)OC(C)C)noc2C(=O)NC2CCCCC2)cc1 [SA 341B] | -0.2
23 | COc1ccc(-c2c(C(=O)OC(C)C)noc2C(=O)NCc2ccccc2)cc1 [SA 341C] | -0.2
24 | CC(C)OC(=O)c1noc(C(=O)N2CCOCC2)c1-c1ccc(C(C)C)cc1 [SA 342A] | -0.3

Row | SMILES | LTR-III ΔTm [°C]
25 | CC(C)OC(=O)c1noc(C(=O)NCc2ccccc2)c1-c1ccc(C(C)C)cc1 [SA 342B] | -0.5
26 | CC(C)OC(=O)c1noc(C(=O)N2CCOCC2)c1-c1cccc2ccccc12 [SA 343A] | -0.4
27 | CC(C)OC(=O)c1noc(C(=O)NCc2ccccc2)c1-c1cccc2ccccc12 [SA 343B] | -0.9
28 | CC(C)OC(=O)c1noc(C(=O)N2CCOCC2)c1-c1cccc(C(F)(F)F)c1 [SA 344A] | -0.5
29 | CC(C)OC(=O)c1noc(C(=O)NCc2ccccc2)c1-c1cccc(C(F)(F)F)c1 [SA 344B] | -0.7
30 | CC(C)OC(=O)c1noc(C(=O)NCc2ccccc2)c1-c1ccc(O)cc1 [SA 345B] | -0.8
31 | COc1ccc(-c2c(C(=O)OC(C)C)noc2C(=O)NCc2ccccn2)cc1 [SA 350C] | -0.6
32 | COc1ccc(-c2c(C(=O)OC(C)C)noc2C(=O)N2CCCCC2)cc1 [SA 375] | -0.4
33 | COC(=O)c1ccc(C=C2N=C(C)N(C)C2=O)cc1 [SA 400] | 0
34 | COc1ccc2cc(OC)c(C=C3N=C(C)N(C)C3=O)cc2c1 [SA 410] | -0.2
35 | CC1=NC(=Cc2ccc([N+](=O)[O-])cc2)C(=O)N1C [SA 412] | 0
36 | CC1=NC(=Cc2ccc(C#N)cc2)C(=O)N1C [SA 433] | -0.4
37 | CC1=NC(=Cc2ccnc3ccccc23)C(=O)N1C [SA 471] | -0.1
38 | COc1ccc(C=C2N=C(C=C(SC)c3ccccc3)N(C)C2=O)cc1 [SA 474.1] | 0
39 | CSC1=NC(=Cc2ccc(O[Si](c3ccccc3)(c3ccccc3)C(C)(C)C)cc2)C(=O)N1C [SA 497] | -0.4
40 | CNC(=O)c1onc(C(=O)OC)c1-c1ccc(OC)cc1 [SA 561A] | -0.3
41 | COC(=O)c1noc(C(=O)N2CCCC2)c1-c1ccc(OC)cc1 [SA 561B] | -0.6
42 | COC(=O)c1noc(C(=O)N2CCCCC2)c1-c1ccc(OC)cc1 [SA 561C] | -1
43 | COC(=O)c1noc(C(=O)NCc2ccccc2)c1-c1ccc(OC)cc1 [SA 561D] | -0.4
44 | COC(=O)c1noc(C(=O)N2CCOCC2)c1-c1ccc(OC)cc1 [SA 561E] | -0.7
45 | CCOC(=O)c1noc(=O)c(O)c1-c1ccc(OC)cc1 [SA 562B] | -1
46 | CSC1=NC(=Cc2ccc(O)cc2)C(=O)N1C [SA 581] | 1
47 | CSC(=CC1=NC(=Cc2ccc(O)cc2)C(=O)N1C)c1ccccc1 [SA 599.21] | -0.3
48 | COc1cc(/C=C/c2ccc(O)cc2OC)oc(=O)c1 [SAI 32] | 0.4

Row | SMILES | LTR-III ΔTm [°C]
49 | O=C1NC(=S)SC1=Cc1cc(Br)c(O)c(Br)c1 [SAI 112] | 0.3
50 | COc1cc(C=C2SC(=S)NC2=O)c(OC)cc1O [SAI 115] | -0.3
51 | O=C1NC(=S)SC1=Cc1ccc(O)c(Br)c1 [SAI 117] | -0.2
52 | O=C1NC(=S)SC1=Cc1cc(F)c(O)c(F)c1 [SAI 118] | 0
53 | O=C1NC(=S)SC1=Cc1ccc(O)c(C(=O)O)c1 [SAI 120] | 0.6
54 | O=C1NC(=S)SC1=Cc1ccc(O)cc1Br [SAI 122] | 0.1
55 | O=C1NC(=S)SC1=Cc1ccc(O)c(Cl)c1 [SAI 125] | 0.6
56 | O=C1NC(=S)SC1=Cc1cc(Cl)c(O)c(Cl)c1 [SAI 127] | -0.2
57 | COc1cc(O)ccc1C=C1N=C(c2cccs2)N(C)C1=O [SH 016.3B] | 0.9
58 | CC(=O)NC(=Cc1ccccc1)C(=O)NO [SV 6] | 0
59 | CC(=O)NC(=Cc1ccc(O)cc1)C(=O)NO [SV 7] | 0
60 | CCC1=NC(=Cc2c[nH]c3ccccc23)C(=O)O1 [SV 11] | 0
61 | CCC(=O)NC(=Cc1c[nH]c2ccccc12)C(=O)NC [SV 13] | -0.1
62 | CCC1=NC(=Cc2c[nH]c3ccccc23)C(=O)N1C [SV 14] | 0
63 | COc1ccc(C=C2N=C(C=C(OC(=O)c3ccc(C)cc3)c3ccc(C)cc3)N(C)C2=O)cc1 [SV 18] | 0.4
64 | COc1ccc(C=C2N=C(C=C(O)c3ccc(C)cc3)N(C)C2=O)cc1 [SV 29] | -0.2
65 | COc1ccc(C=C2N=C(C=C(O)c3ccc(F)cc3)N(C)C2=O)cc1 [SV 30] | -0.4
66 | CC1=NC(=Cc2ccccc2F)C(=O)N1C [SV 50.9] | -0.2
67 | CC1=NC(=Cc2ccc(F)cc2)C(=O)N1C [SV 50.10] | -0.2
68 | COc1cccc(C=C2N=C(C)N(C)C2=O)c1 [SV 50.11] | -0.2
69 | CC1=NC(=Cc2ccc(O)c(C(=O)O)c2)C(=O)N1C [SV 51.1] | -0.4
70 | CC1=NC(=Cc2cc(Br)cc(Br)c2)C(=O)N1C [SV 51.5] | -0.3
71 | CC1=NC(=Cc2ccc(Br)cc2)C(=O)N1C [SV 51.10] | -0.2
72 | CC1=NC(=Cc2cccc3ccccc23)C(=O)N1C [SV 51.12] | 0.4

Row | SMILES | LTR-III ΔTm [°C]
73 | CC1=NC(=Cc2ccc([N+](=O)[O-])c(O)c2)C(=O)N1C [SV 52.7] | -0.2
74 | CC1=NC(=Cc2ccc(Br)c([N+](=O)[O-])c2)C(=O)N1C [SV 52.8] | 0.6
75 | COc1ccc(C=C2N=C(SC)N(C)C2=O)cc1 [VZ 1] | 0.4
76 | CC(C)(C)[Si](Oc1ccc(C=C2NC(=S)NC2=O)cc1)(c1ccccc1)c1ccccc1 [VZ 2] | -0.2
77 | CC1=NC(=Cc2ccc3cc(N(C)C)ccc3c2)C(=O)N1C [X 001] | -0.5
78 | CC1=NC(=Cc2ccc3cc(N4CCOCC4)ccc3c2)C(=O)N1C [X 002] | -0.6
79 | CC1=NC(=Cc2cc3c4c(c2)CCCN4CCC3)C(=O)N1C [X 4] | 1
80 | CC1=NC(=Cc2ccc(N)c(O)c2)C(=O)N1C [X 5] | 0.9
81 | CCOC(=O)CN1C(=O)C(=Cc2ccc(Br)cc2)N=C1c1ccccc1 [X 6] | -0.1
82 | CC1=NC(=Cc2ccc(OCc3ccccc3)cc2)C(=O)N1C [X 7] | 0
83 | C=CCOc1ccc(C=C2N=C(C)N(C)C2=O)cc1 [X 8] | 0
84 | CC1=NC(=Cc2ccc(Br)cc2)C(=O)N1Cc1ccccc1 [X 9] | -0.6
85 | CC1=NC(=Cc2ccc(O)cc2)C(=O)N1CCCNC(=O)OC(C)(C)C [X 10] | -0.2
86 | C=CCc1cc(C=C2N=C(C)N(C)C2=O)ccc1O [X 11] | -0.2
87 | C#CCN1C(=O)C(=Cc2ccc(O)cc2)N=C1C [X 12] | 0.2
88 | CC(=O)Oc1ccc(C=C2N=C(C)NC2=O)cc1 [X 13] | -0.8
89 | CC(=O)C1=NC(=Cc2ccc(O)cc2)C(=O)N1C [X 18] | 0.6
90 | CN1C(=O)C(=Cc2ccc(OCc3ccccc3)cc2)N=C1C(C)(C)C [X 20] | -0.2
91 | CN1C(=O)C(=Cc2ccc(O)cc2)N=C1CCCCCNC(=O)OC(C)(C)C [X 21] | -0.1
92 | COc1ccc(CN(C(C)=O)C(C)C2=NC(=Cc3ccc(O)cc3)C(=O)N2C)cc1 (stereo not drawn) [X 23] | 0.5
93 | O=C1NC(c2ccccc2)=NC1=Cc1ccc(O)cc1 [X 24] | -0.5

From article PMC8533149 (Biomolecules, 2021)
